Assay results taken from US9006455B2 (Bristol-Myers Squibb Company, priority 2009, dated 2015).
pEC50: −log10 of the molar value. Like-named read-outs stand apart in the source and are kept apart here.

Tested on: HCV 1b genotype
Test: HCV Replicon assay (HCV 1b genotype)
Assay type: cell-based
Conditions: Hepatitis C virus, HCV 1b genotype replicon
Experimental: An HCV Replicon assay was utilized in the present disclosure, and was prepared, conducted and validated as described in commonly owned PCT/US2006/022197 and in O'Boyle et al., Antimicrob. Agents Chemother., 49(4):1346-1353 (April 2005). Assay methods incorporating luciferase reporters have also been used as described (Apath.com).
HCV-neo replicon cells and replicon cells containing resistance substitutions in the NS5A region were used to test the currently described family of compounds. The compounds were determined to have differing degrees of reduced inhibitory activity on cells containing mutations vs. the corresponding inhibitory potency against wild-type cells. Thus, the compounds of the present disclosure can be effective in inhibiting the function of the HCV NS5A protein and are understood to be as effective in combinations as previously described in application PCT/US2006/022197 and commonly owned WO 04/014852. It should be understood that the compounds of the present disclosure can inhibit multiple genotypes of HCV. […] In one embodiment, compounds of the present disclosure are inhibitory versus 1a, 1b, 2a, 2b, 3a, 4a, and 5a genotypes.

[1] = read-out: Range (EC50 values against HCV 1b)

Row | SMILES | pEC50 (read-out: EC50) | pEC50 [1]
1 | COC(=O)N[C@H](C(=O)N1[C@@H]2C[C@@H]2C[C@H]1c1ncc(C#Cc2ccc3cc(-c4cnc([C@@H]5C[C@H]6C[C@H]6N5C(=O)[C@@H](NC(=O)OC)C5CCOCC5)[nH]4)ccc3c2)[nH]1)C1CCOCC1 [Example 82, Methyl((1S)-2-((1R,3S,5R)-3-(4-(6-((2-((1R,3S,5R)-2-((2S)-2-((methoxycarbonyl)amino)-2-(tetrahydro-2H-pyran-4-yl)acetyl)-2-azabicyclo[3.1.0]hex-3-yl)-1H-imidazol-4-yl)ethynyl)-2-naphthyl)-1H-imidazol-2-yl)-2-azabicyclo[3.1.0]hex-2-yl)-2-oxo-1-(tetrahydro-2H-pyran-4-yl)ethyl)carbamate] | 10.37 | 9.00 to 11.00
2 | COC(=O)N[C@H](C(=O)N1CCOC[C@H]1c1nc(-c2ccc(-c3ccc4cc(-c5c[nH]c([C@@H]6COCCN6C(=O)[C@@H](NC(=O)OC)C6CCOCC6)n5)ccc4c3)cc2)c[nH]1)C1CCOCC1 [Example 116, Methyl((1S)-2-((3R)-3-(4-(4-(6-(2-((3R)-4-((2S)-2-((methoxycarbonyl)amino)-2-(tetrahydro-2H-pyran-4-yl)acetyl)-3-morpholinyl)-1H-imidazol-4-yl)-2-naphthyl)phenyl)-1H-imidazol-2-yl)-4-morpholinyl)-2-oxo-1-(tetrahydro-2H-pyran-4-yl)ethyl)carbamate] | – | 9.00 to 11.00
3 | COC(=O)N[C@H](C(=O)N1[C@@H]2C[C@@H]2C[C@H]1c1ncc(-c2ccc(-c3ccc4nc(-c5cnc([C@@H]6C[C@H]7C[C@H]7N6C(=O)[C@@H](NC(=O)OC)C(C)C)[nH]5)ccc4c3)cc2)[nH]1)C(C)C [Example 80, methyl((1S)-1-(((1R,3S,5R)-3-(4-(6-(4-(2-((1R,3S,5R)-2-((2S)-2-((methoxycarbonyl)amino)-3-methylbutanoyl)-2-azabicyclo[3.1.0]hex-3-yl)-1H-imidazol-4-yl)phenyl)-2-quinolinyl)-1H-imidazol-2-yl)-2-azabicyclo[3.1.0]hex-2-yl)carbonyl)-2-methylpropyl)carbamate] | 11.97 | –
4 | COC(=O)N[C@H](C(=O)N1CCC[C@H]1c1ncc(C#Cc2ccc3cc(C#Cc4cnc([C@@H]5CCCN5C(=O)[C@@H](NC(=O)OC)C(C)C)[nH]4)ccc3c2)[nH]1)C(C)C [Example 31, Methyl((1S)-1-(((2S)-2-(4-((6-((2-((2S)-1-((2S)-2-((methoxycarbonyl)amino)-3-methylbutanoyl)-2-pyrrolidinyl)-1H-imidazol-4-yl)ethynyl)-2-naphthyl)ethynyl)-1H-imidazol-2-yl)-1-pyrrolidinyl)carbonyl)-2-methylpropyl)carbamate] | – | 9.00 to 11.00
5 | COC(=O)N[C@H](C(=O)N1[C@@H]2C[C@@H]2C[C@H]1c1ncc(-c2ccc3cc(C#Cc4cnc([C@@H]5C[C@H]6C[C@H]6N5C(=O)[C@@H](NC(=O)OC)C5CCOCC5)[nH]4)ccc3c2)[nH]1)C(C)C [Example 96, Methyl((1S)-2-((1R,3S,5R)-3-(4-((6-(2-((1R,3S,5R)-2-((2S)-2-((methoxycarbonyl)amino)-3-methylbutanoyl)-2-azabicyclo[3.1.0]hex-3-yl)-1H-imidazol-4-yl)-2-naphthyl)ethynyl)-1H-imidazol-2-yl)-2-azabicyclo[3.1.0]hex-2-yl)-2-oxo-1-(tetrahydro-2H-pyran-4-yl)ethyl)carbamate] | – | 9.00 to 11.00
6 | COC(=O)N[C@@H](C(=O)N1CCC[C@H]1c1nc2cc(-c3ccc4ccc(-c5ccc6nc([C@@H]7CCCN7C(=O)[C@H](NC(=O)OC)C(C)C)[nH]c6c5)cc4c3)ccc2[nH]1)C(C)C [Example 14, Methyl((1R)-1-(((2S)-2-(5-(7-(2-((2S)-1-((2R)-2-((methoxycarbonyl)amino)-3-methylbutanoyl)-2-pyrrolidinyl)-1H-benzimidazol-5-yl)-2-naphthyl)-1H-benzimidazol-2-yl)-1-pyrrolidinyl)carbonyl)-2-methylpropyl)carbamate] | – | 6.00 to 9.00
7 | COC(=O)N[C@H](C(=O)N1[C@@H]2C[C@@H]2C[C@H]1c1ncc(-c2ccc3cc(-c4ccc5nc([C@@H]6C[C@H]7C[C@H]7N6C(=O)[C@@H](NC(=O)OC)C6CCOCC6)[nH]c5c4)ccc3c2)[nH]1)C1CCOCC1 [Example 45, Methyl((1S)-2-((1R,3S,5R)-3-(4-(6-(2-((1R,3S,5R)-2-((2S)-2-((methoxycarbonyl)amino)-2-(tetrahydro-2H-pyran-4-yl)acetyl)-2-azabicyclo[3.1.0]hex-3-yl)-1H-benzimidazol-5-yl)-2-naphthyl)-1H-imidazol-2-yl)-2-azabicyclo[3.1.0]hex-2-yl)-2-oxo-1-(tetrahydro-2H-pyran-4-yl)ethyl)carbamate] | – | 9.00 to 11.00
8 | COC(=O)N[C@H](C(=O)N1[C@H](c2ncc(-c3ccc(-c4ccc5cc(-c6cnc([C@@H]7C[C@@H]8C[C@@H]8N7C(=O)[C@@H](NC(=O)OC)C(C)C)[nH]6)ccc5c4)cc3)[nH]2)C[C@@H]2C[C@@H]21)C(C)C [Example 135, Methyl((1S)-1-(((1S,3S,5S)-3-(4-(4-(6-(2-((1S,3S,5S)-2-((2S)-2-((methoxycarbonyl)amino)-3-methylbutanoyl)-2-azabicyclo[3.1.0]hex-3-yl)-1H-imidazol-4-yl)-2-naphthyl)phenyl)-1H-imidazol-2-yl)-2-azabicyclo[3.1.0]hex-2-yl)carbonyl)-2-methylpropyl)carbamate] | – | 9.00 to 11.00
9 | COC(=O)N[C@H](C(=O)N1C[C@@H](C)C[C@H]1c1ncc(-c2ccc(-c3ccc4cc(-c5cnc([C@@H]6C[C@H](C)CN6C(=O)[C@@H](NC(=O)OC)C6CCOCC6)[nH]5)ccc4c3)cc2)[nH]1)C1CCOCC1 [Example 129, Methyl(2-((2S,4S)-2-(4-(4-(6-(2-((2S,4S)-1-(((methoxycarbonyl)amino)(tetrahydro-2H-pyran-4-yl)acetyl)-4-methyl-2-pyrrolidinyl)-1H-imidazol-4-yl)-2-naphthyl)phenyl)-1H-imidazol-2-yl)-4-methyl-1-pyrrolidinyl)-2-oxo-1-(tetrahydro-2H-pyran-4-yl)ethyl)carbamate] | – | 9.00 to 11.00
10 | COC(=O)N[C@H](C(=O)N1[C@@H]2C[C@@H]2C[C@H]1c1ncc(-c2ccc(-c3ccc4nc(-c5cnc([C@@H]6C[C@H]7C[C@H]7N6C(=O)[C@@H](NC(=O)OC)C(C)C)[nH]5)cnc4c3)cc2)[nH]1)C(C)C [Example 104] | 11.70 | –
11 | COC(=O)N[C@H](C(=O)N1CCC[C@H]1c1ncc(-c2ccc3cc(-c4ccc5c(ccc6nc([C@@H]7CCCN7C(=O)[C@@H](NC(=O)OC)C7CCOCC7)[nH]c65)c4)ccc3c2)[nH]1)C1CCOCC1 [Example 42] | – | 9.00 to 11.00
12 | COC(=O)N[C@H](C(=O)N1[C@@H]2C[C@@H]2C[C@H]1c1ncc(C#Cc2ccc3cc(-c4cnc([C@@H]5CC[C@H](C)N5C(=O)[C@@H](NC(=O)OC)C5CCOCC5)[nH]4)ccc3c2)[nH]1)C1CCOCC1 [Example 98, Methyl((1S)-2-((2S,5S)-2-(4-(6-((2-((1R,3S,5R)-2-((2S)-2-((methoxycarbonyl)amino)-2-(tetrahydro-2H-pyran-4-yl)acetyl)-2-azabicyclo[3.1.0]hex-3-yl)-1H-imidazol-4-yl)ethynyl)-2-naphthyl)-1H-imidazol-2-yl)-5-methyl-1-pyrrolidinyl)-2-oxo-1-(tetrahydro-2H-pyran-4-yl)ethyl)carbamate] | – | 9.00 to 11.00
